Results taken from patent publication US20200071310A1, “N-ARYL PYRAZOLES AS NRF2 REGULATORS” (GLAXOSMITHKLINE INTELLECTUAL PROPERTY DEVELOPMENT LIMITED, priority 2016, published 2020).
Counter-ions that a name gives are not always drawn. Like-named read-outs stand apart in the source and are kept apart here.

Legend:
[1] = system: histologic abnormalities, especially hepatic fibrosis; details: rats on a choline-deficient L-amino acid-defined diet; cited from earlier work
[2] = system: NQO1 specific enzyme activity in BEAS-2B cells; assay: BEAS-2B NQO1 MTT Assay; assay type: cell-based; details: NQO1 specific activity induction, BEAS-2B cells, 48 hours, read-out: EC50
Description: NAD(P)H:quinone oxidoreductase 1 (NQO1), also called DT diaphorase, is a homodimeric FAD-containing enzyme that catalyzes obligatory NAD(P)H-dependent two-electron reductions of quinones and protects cells against the toxic and neoplastic effects of free radicals and reactive oxygen species arising from one-electron reductions. The transcription of NQO1 is finely regulated by NRF2, and thus NQO1 activity is a good marker for NRF2 activation. On day one, frozen BEAS-2B cells (ATCC) were thawed in a water bath, counted, and re-suspended at a concentration of 250,000 cells/mL. Fifty microliters of cells were plated in 384 well black clear-bottomed plates. Plates were incubated at 37° C., 5% CO2 overnight. On day two, plates were centrifuged and 50 nL of compound or controls were added to the cells. Plates were then incubated at 37° C., 5% CO2 for 48 hours. On day four, medium was aspirated from the plate and crude cell lysates were made by adding 13 uL of 1× Cell Signaling Technologies lysis buffer with 1 Complete, Mini, EDTA-free Protease Inhibitor Tablet (Roche) for each 10 mL of lysis buffer. After lysis plates were incubated for 20 minutes at room temperature. Two microliters of lysate were removed for use in Cell Titer Glo assay (Promega) and MTT cocktail was prepared (Prochaska et. al. 1998) for measurement of NQO1 activity. Fifty microliters of MTT cocktail is added to each well, plate is centrifuged, and analyzed on an Envision plate reader (Perkin Elmer) using Absorbance 570 nm label for 30 minutes. Product formation was measured kinetically and the pEC50 of NQO1 specific activity induction was calculated by plotting the change in absorbance (Delta OD/min) versus the log of compound concentration followed by 3-parameter fitting. pEC50 is the negative log of the EC50.

cortical damage = details: rats, cerebral ischemia-reperfusion model; cited from earlier work
[3] = system: cortical glutathione levels; details: NRF2 wild-type but not KO mice; cited from earlier work
[4] = system: COPD macrophages and alveolar macrophages from cigarette smoke-exposed mice; details: cited from earlier work

Which “progression of histologic abnormalities, especially hepatic fibrosis” value [1] does the source give for `Cc1c(-c2cnccn2)ssc1=S` [oltipraz] here?
Its value is “significantly attenuated”.

Which “progression of histologic abnormalities, especially hepatic fibrosis” value [1] does the source give for `O=C(NCc1ccccn1)Nc1nnc(-c2ccco2)o1` [NK-252] here?
The value was “significantly attenuated”.

For `C[C@H]1Cc2ccc(C(F)(F)F)cc2S(=O)(=O)N([C@@H]2CCc3c2cccc3-n2ncc(C(=O)O)c2[C@@H]2C[C@H]2c2cn(C)nn2)C1` [Example 26b, 1-((R)-1-((S)-4-Methyl-1,1-dioxido-8-(trifluoromethyl)-4,5-dihydrobenzo[f][1,2]thiazepin-2(3H)-yl)-2,3-dihydro-1H-inden-4-yl)-5-((1R,2R)-2-(1-methyl-1H-1,2,3-triazol-4-yl)cyclopropyl)-1H-pyrazole-4-carboxylic acid], which EC50 ([2]; Homo sapiens) is on record?
Its EC50 is 1000 to 10000 nM.

Which cortical damage (cortical damage) does the source give for `CC(C)(C)c1cc(O)ccc1O` [tert-butylhydroquinone] here?
Its cortical damage is “reduced cortical damage”.

And the cortical glutathione levels [3]?
The cortical glutathione levels was “increased in NRF2 wild-type but not KO mice”.

Which EC50 [2] does the source give for `CCOc1ccc(Br)cc1CN(Cc1cccc(-n2ncc(C(=O)O)c2[C@@H]2C[C@H]2c2cn(C)nn2)c1)C1CC1` (relative stereo) [Example 55, 1-(3-(((5-bromo-2-ethoxybenzyl)cyclo-propyl)amino)methyl)phenyl)-5-((trans)-2-(1-methyl-1H-1,2,3-triazol-4-yl)cyclopropyl)-1H-pyrazole-4-carboxylic acid trifluoroacetate] here?
The EC50 was 100 to 1000 nM.

For `C[S+]([O-])CCCCN=C=S` (centres unmarked) [Sulforaphane], which “expression of Macrophage Receptor with Collagenous structure (MARCO)” value ([4]; COPD macrophages and alveolar macrophages from cigarette smoke-exposed mice) is on record?
Its value is “increases”.

What about the “bacterial phagocytosis (Pseudomonas aeruginosa, non-typable Haemophilus influenzae) and bacterial clearance” value ([4]; ex vivo and in vivo) of the same compound?
The value was “improving”.
